According to patent US11261196B2, “Salt serving as AKT inhibitor and crystal thereof” (HARBIN ZHENBAO PHARMACEUTICAL CO., LTD., priority 2017, dated 2022):
“Also recorded” adds a separate entry of the source.

Test: Stability test of the crystal form (accelerated conditions, HPLC related substances)
Format: physicochemical
Experimental: […] The sample was analyzed after 10 days, 1 month and 2 months.
1.2 Preparation of Diluent and Mobile Phase
Diluent: acetonitrile:water (1:1) was used as diluent
For example: 100 mL of pure water and 100 mL of pure acetonitrile were mixed in a glass bottle, followed by degassing with ultrasound for 10 minutes, then cooled down to room temperature.
Mobile phase A: 0.1% phosphoric acid aqueous solution
For example: 2.0 mL phosphoric acid was added into 2000 mL water, followed by ultrasound treatment for 10 minutes, the solution was mixed well and cooled down to room temperature as mobile phase A.
Mobile phase B: acetonitrile
Acetonitrile was used as mobile phase B.
1.3 Preparation of the Reference Solution (0.25 mg/mL Calculated by the Free Base)
The sample of the 0th day was used as reference sample, 16 mL of diluent was added thereto, followed by ultrasound treatment for 5 minutes, and the solution was mixed well. Then the solution was further subjected to 1-fold dilution and marked as STD-1 and STD-2, respectively.
1.4 Preparation of Sample Solution for Testing Sensitivity
Reference solution STD-1 (the sample of the 0th day) was subjected to 2000-fold dilution, noted as LOQ.
1.5 Preparation of the Sample Solution (0.25 mg/mL Calculated by the Freebase)
The sample was taken out and restored to room temperature and 16 mL diluent was added for dissolution. The solution was further subjected to 1-fold dilution to be used as sample solution to detect the content of related substances.

Impurity content, RRT 0.99 (60° C./75%RH, 1M): 1.27%
Impurity content, RRT 1.02 (60° C./75%RH, 1M): 0.19%
Impurity content, RRT 1.04 (60° C./75%RH, 1M): 0.08%
Impurity content, RRT 1.06 (60° C./75%RH, 1M): 0.34%
Impurity content, RRT 1.21 (60° C./75%RH, 1M): 1.44%
Impurity content, RRT 1.26 (60° C./75%RH, 1M): 0.10%
TRS (total impurity content) (60° C./75%RH, 1M): 3.57%
Impurity content, RRT 0.95 (60° C./75%RH, 2M): 0.04%
Impurity content, RRT 0.98 (60° C./75%RH, 2M): 0.10%
Impurity content, RRT 0.99 (60° C./75%RH, 2M): 1.22%
Impurity content, RRT 1.02 (60° C./75%RH, 2M): 0.24%
Impurity content, RRT 1.04 (60° C./75%RH, 2M): 0.08%
Impurity content, RRT 1.06 (60° C./75%RH, 2M): 0.45%
Impurity content, RRT 1.21 (60° C./75%RH, 2M): 1.43%
Impurity content, RRT 1.26 (60° C./75%RH, 2M): 0.10%
Impurity content, RRT 1.33 (60° C./75%RH, 2M): 0.06%
Impurity content, RRT 1.36 (60° C./75%RH, 2M): 0.08%
Impurity content, RRT 1.43 (60° C./75%RH, 2M): 0.05%
TRS (total impurity content) (60° C./75%RH, 2M): 3.85%
Impurity content, RRT 0.98 (60° C./75%RH, 10D): 0.10%
Impurity content, RRT 0.99 (60° C./75%RH, 10D): 1.36%
Impurity content, RRT 1.02 (60° C./75%RH, 10D): 0.24%
Impurity content, RRT 1.04 (60° C./75%RH, 10D): 0.07%
Impurity content, RRT 1.06 (60° C./75%RH, 10D): 0.15%
Impurity content, RRT 1.21 (60° C./75%RH, 10D): 1.46%
Impurity content, RRT 1.26 (60° C./75%RH, 10D): 0.09%
TRS (total impurity content) (60° C./75%RH, 10D): 3.47%
Impurity content, RRT 0.95 (−20° C., 1M): 0.04%
Impurity content, RRT 0.98 (−20° C., 1M): 0.11%
Impurity content, RRT 0.99 (−20° C., 1M): 1.38%
Impurity content, RRT 1.02 (−20° C., 1M): 0.22%
Impurity content, RRT 1.04 (−20° C., 1M): 0.05%
Impurity content, RRT 1.21 (−20° C., 1M): 1.52%
Impurity content, RRT 1.26 (−20° C., 1M): 0.07%
TRS (total impurity content) (−20° C., 1M): 3.38%
Impurity content, RRT 0.95 (−20° C., 2M): 0.04%
Impurity content, RRT 0.98 (−20° C., 2M): 0.10%
Impurity content, RRT 0.99 (−20° C., 2M): 1.35%
Impurity content, RRT 1.02 (−20° C., 2M): 0.19%
Impurity content, RRT 1.04 (−20° C., 2M): 0.04%
Impurity content, RRT 1.21 (−20° C., 2M): 1.51%
Impurity content, RRT 1.26 (−20° C., 2M): 0.10%
Impurity content, RRT 1.43 (−20° C., 2M): 0.05%
TRS (total impurity content) (−20° C., 2M): 3.38%
Impurity content, RRT 0.95 (−20° C., 10D): 0.04%
Impurity content, RRT 0.98 (−20° C., 10D): 0.10%
Impurity content, RRT 0.99 (−20° C., 10D): 1.37%
Impurity content, RRT 1.02 (−20° C., 10D): 0.29%
Impurity content, RRT 1.04 (−20° C., 10D): 0.07%
Impurity content, RRT 1.21 (−20° C., 10D): 1.47%
Impurity content, RRT 1.26 (−20° C., 10D): 0.05%
TRS (total impurity content) (−20° C., 10D): 3.39%
Structure (SMILES): Cc1cnn2c1-c1cc(C(=O)N[C@H](CN)Cc3cccc(F)c3)sc1CCC2.O=C(O)/C=C\C(=O)O
Stability (high temperature and high humidity): stable under the conditions of high temperature and high humidity; also recorded: relatively stable, and less affected by heat and humidity
